Reference: US8431563B2 (priority 2010, dated 2013)
pEC50, pIC50: −log10 of the molar value. Where two headings read alike, the source gives them in different places.

How the values were obtained:
[1] = target: T1, GKRP (Glucokinase Regulatory Protein) with human His-hepatic GK (Homo sapiens, UniProt Q14397); test: biochemical
T1 sequence (Q14397 1-625): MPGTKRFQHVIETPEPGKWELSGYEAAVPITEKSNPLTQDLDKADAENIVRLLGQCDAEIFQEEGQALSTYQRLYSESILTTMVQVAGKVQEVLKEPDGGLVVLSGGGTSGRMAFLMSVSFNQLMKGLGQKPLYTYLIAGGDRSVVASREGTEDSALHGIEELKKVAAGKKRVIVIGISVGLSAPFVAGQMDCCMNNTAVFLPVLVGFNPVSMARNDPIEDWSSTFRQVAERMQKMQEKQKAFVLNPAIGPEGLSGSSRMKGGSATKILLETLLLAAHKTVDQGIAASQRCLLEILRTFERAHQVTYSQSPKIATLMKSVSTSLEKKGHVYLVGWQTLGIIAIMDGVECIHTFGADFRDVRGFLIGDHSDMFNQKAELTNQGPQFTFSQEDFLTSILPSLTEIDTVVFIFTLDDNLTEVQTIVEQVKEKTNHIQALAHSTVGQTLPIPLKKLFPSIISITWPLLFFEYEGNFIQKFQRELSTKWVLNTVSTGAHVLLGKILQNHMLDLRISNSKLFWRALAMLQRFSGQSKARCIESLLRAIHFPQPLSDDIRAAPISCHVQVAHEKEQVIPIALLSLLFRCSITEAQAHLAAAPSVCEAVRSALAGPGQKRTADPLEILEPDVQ
In short: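 Product formation, 13C-glucose-6-phosphate from 13C-glucose, was measured directly by LC MS/MS after acetonitrile quench. The GK reaction ran 30 min at room temperature in Tris pH 7.5 buffer with 4 mM MgCl2 and 6% DMSO. The 5× enzyme stock was 30 nM His-tagged human hepatic glucokinase.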

[2] = target: T2, interaction between glucokinase (GK) and glucokinase regulatory protein (GKRP) (Homo sapiens, UniProt Q14397); test: biochemical; assay type: binding
T2 sequence (Q14397 1-625): T1 sequence (Q14397 1-625)
In short: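 Measures direct GK–GKRP binding in 20 mM Tris pH 7.5 containing 1 μM sorbitol-6-phosphate, 0.05% BSA and 1 mM DTT. Compound and avi-tagged GKRP sit 20 min at room temperature before GK-fluorescein addition (6 nM in the added buffer); read after 2 h dark incubation at room temperature.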

[3] = 13C-glucose-6-phosphate formation, 280 nM GKRP (10×), 30 nM GK (5×), read-out: GK-GKRP EC50 (LC MS/MS-2)
[4] = avi-tagged GKRP, GK-fluorescein, AlphaScreen beads, read-out: GK-GKRP IC50 (Binding)

Structure (SMILES) | pEC50 [1, 3] | pIC50 [2, 4] | pEC50 ([1]; GK-GKRP EC50 (LC MS/MS-2)) | pIC50 ([2]; GK-GKRP IC50 (Binding))
CC(O)(c1ccc(N2CCN(S(=O)(=O)c3cccs3)C[C@@H]2CN2CCS(=O)(=O)CC2)cc1)C(F)(F)F (mixture of isomers) [Example 85, 2-(4-((2S)-2-((1,1-dioxido-4-thiomorpholinyl)methyl)-4-(2-thiophenylsulfonyl)-1-piperazinyl)phenyl)-1,1,1-trifluoro-2-propanol] | 6.32 | 6.46 | – | –
CC(O)(c1ccc(N2CCN(S(=O)(=O)c3ccc(N)s3)CC2)cc1)C(F)(F)F (racemic) [Example 90, 2-(4-(4-((5-amino-2-thiophenyl)sulfonyl)-1-piperazinyl)phenyl)-1,1,1-trifluoro-2-propanol] | 6.08 | 6.35 | – | –
CC(O)(c1ccc(N2CCN(S(=O)(=O)c3ccc(N)nc3)C[C@@H]2CC2CCOCC2)cc1)C(F)(F)F (mixture of isomers) [Example 127, 2-(4-((2S)-4-((6-amino-3-pyridinyl)sulfonyl)-2-(tetrahydro-2H-pyran-4-ylmethyl)-1-piperazinyl)phenyl)-1,1,1-trifluoro-2-propanol] | 7.24 | 7.26 | – | –
C[C@H]1COCCN1C[C@H]1CN(S(=O)(=O)c2ccc(N)nc2)CCN1c1ncc(C(C)(O)C(F)(F)F)cn1 (mixture of isomers) [Example 129, 2-(2-((2S)-4-((6-amino-3-pyridinyl)sulfonyl)-2-(((3S)-3-methyl-4-morpholinyl)methyl)-1-piperazinyl)-5-pyrimidinyl)-1,1,1-trifluoro-2-propanol] | 7.00 | 7.44 | – | –
C[C@H]1CN(S(=O)(=O)c2ccc(N)s2)CCN1c1ccc(C(C)(O)C(F)(F)F)cc1 (mixture of isomers) [Example 139, 2-(4-((2S)-4-((5-amino-2-thiophenyl)sulfonyl)-2-methyl-1-piperazinyl)phenyl)-1,1,1-trifluoro-2-propanol] | 6.43 | 6.20 | – | –
C[C@@H](C[C@H]1CN(S(=O)(=O)c2cccs2)CCN1c1ccc([C@](C)(O)C(F)(F)F)cc1)NC1COC1 (racemic) [Example 148, 1,1,1-trifluoro-2-(4-((2S)-2-(2-(3-oxetanylamino)propyl)-4-(2-thiophenylsulfonyl)-1-piperazinyl)phenyl)-2-propanol] | – | – | 6.28 | 5.95
CC(O)C#Cc1cc(C(O)(C(F)(F)F)C(F)(F)F)ccc1N1CCN(S(=O)(=O)c2cccs2)CC1 (racemic) [Example 151, 4-(2-(4-(2-thiophenylsulfonyl)-1-piperazinyl)-5-(2,2,2-trifluoro-1-hydroxy-1-(trifluoromethyl)ethyl)phenyl)-3-butyn-2-ol] | 6.00 | 6.40 | – | –
CCC(C#Cc1cc(C(O)(C(F)(F)F)C(F)(F)F)ccc1N1CCN(S(=O)(=O)c2cccs2)CC1)OC (racemic) [Example 155, 1,1,1,3,3,3-hexafluoro-2-(3-(3-methoxy-1-pentyn-1-yl)-4-(4-(2-thiophenylsulfonyl)-1-piperazinyl)phenyl)-2-propanol] | 6.95 | 6.84 | – | –
CCC(C#Cc1cc(C(O)(C(F)(F)F)C(F)(F)F)ccc1N1CCC(S(=O)(=O)c2ccccc2)CC1)OC (racemic) [Example 163, 1,1,1,3,3,3-hexafluoro-2-(3-(3-methoxypent-1-ynyl)-4-(4-(phenylsulfonyl)piperidin-1-yl)phenyl)-2-propanol] | 6.09 | 6.22 | – | –
COc1ccccc1CC1CN(S(=O)(=O)c2cccs2)CCN1c1ccc(C(O)(C(F)(F)F)C(F)(F)F)cc1 (racemic) [Example 174, 1,1,1,3,3,3-hexafluoro-2-(4-(2-(2-methoxybenzyl)-4-(thiophen-2-ylsulfonyl)piperazin-1-yl)phenyl)-2-propanol] | 6.94 | 6.78 | – | –
O=S(=O)(c1cccs1)N1CCN(c2ccc(C(O)(C(F)(F)F)C(F)(F)F)cc2)C(Cc2ccccc2O)C1 (racemic) [Example 178, 2-((1-(4-(1,1,1,3,3,3-hexafluoro-2-hydroxypropan-2-yl)phenyl)-4-(thiophen-2-ylsulfonyl)piperazin-2-yl)methyl)phenol] | 7.08 | 6.77 | – | –
CC(C)C1C(=O)NCCN1C[C@H]1CN(S(=O)(=O)c2cccs2)CCN1c1ncc(C(O)(C(F)(F)F)C(F)(F)F)cn1 (mixture of isomers) [Example 185, 3-(1-methylethyl)-4-(((2S)-4-(2-thiophenylsulfonyl)-1-(5-(2,2,2-trifluoro-1-hydroxy-1-(trifluoromethyl)ethyl)-2-pyrimidinyl)-2-piperazinyl)methyl)-2-piperazinone] | 7.80 | 9.00 | – | –
CC(O)(c1ccc(N2CCN(S(=O)(=O)c3cccs3)C[C@@H]2CS(=O)(=O)c2cccc(F)c2)cc1)C(F)(F)F (mixture of isomers) [Example 189 Peak#1, 1,1,1-trifluoro-2-(4-((2R)-2-(((3-fluorophenyl)sulfonyl)methyl)-4-(2-thiophenylsulfonyl)-1-piperazinyl)phenyl)-2-propanol] | 6.63 | 6.43 | – | –
CC(O)(c1ccc(N2CCN(S(=O)(=O)c3cccs3)C[C@@H]2CS(=O)(=O)c2ccc(F)cc2)cc1)C(F)(F)F (mixture of isomers) [Example 191 Peak#1, 1,1,1-trifluoro-2-(4-((2R)-2-(((4-fluorophenyl)sulfonyl)methyl)-4-(2-thiophenylsulfonyl)-1-piperazinyl)phenyl)-2-propanol] | 6.78 | 6.75 | – | –
CC(O)(c1ccc(N2CCN(S(=O)(=O)c3cccs3)C[C@@H]2CNS(=O)(=O)c2cccnc2)cc1)C(F)(F)F (mixture of isomers) [Example 192, N-(((2S)-4-(2-thiophenylsulfonyl)-1-(4-(2,2,2-trifluoro-1-hydroxy-1-methylethyl)phenyl)-2-piperazinyl)methyl)-3-pyridinesulfonamide] | 6.90 | 6.99 | – | –
CC(C)N(C[C@H]1CN(S(=O)(=O)c2cccs2)CCN1c1ccc(C(C)(O)C(F)(F)F)cc1)S(C)(=O)=O (mixture of isomers) [Example 195, N-(1-methylethyl)-N-(((2R)-4-(2-thiophenylsulfonyl)-1-(4-(2,2,2-trifluoro-1-hydroxy-1-methylethyl)phenyl)-2-piperazinyl)methyl)methanesulfonamide] | 7.24 | 7.55 | – | –
CC(C)CN(C[C@H]1CN(S(=O)(=O)c2cccs2)CCN1c1ccc(C(C)(O)C(F)(F)F)cc1)S(C)(=O)=O (mixture of isomers) [Example 201, N-(2-methylpropyl)-N-(((2S)-4-(2-thiophenylsulfonyl)-1-(4-(2,2,2-trifluoro-1-hydroxy-1-methylethyl)phenyl)-2-piperazinyl)methyl)methanesulfonamide] | 7.85 | 8.40 | – | –
CC(O)(c1ccc(N2CCN(S(=O)(=O)c3cccs3)C[C@@H]2CN(CC2CC2)S(C)(=O)=O)cc1)C(F)(F)F (mixture of isomers) [Example 202, N-(cyclopropylmethyl)-N-(((2S)-4-(2-thiophenylsulfonyl)-1-(4-(2,2,2-trifluoro-1-hydroxy-1-methylethyl)phenyl)-2-piperazinyl)methyl)methanesulfonamide] | 7.41 | 7.59 | – | –
CC(O)(c1ccc(N2CCN(S(=O)(=O)c3cccs3)CC2CN2C3COCC2C(O)C3)cc1)C(F)(F)F (single isomer, unassigned) [Example 77 Peak #2] | 7.72 | 7.96 | – | –
CC(O)(c1ccc(N2CCN(S(=O)(=O)c3cccs3)CC2CN2C3COCC2C(O)C3)cc1)C(F)(F)F (single isomer, unassigned) [Example 77 Peak #3] | 7.24 | 7.54 | – | –
